Test results from patent publication US9951063B2, “8-(piperazin-1-yl)-1,2,3,4-tetrahydro-isoquinoline derivatives” (IDORSIA PHARMACEUTICALS LTD, priority 2014, dated 2018).

Molecular target: human CXCR3A (Homo sapiens (Human), UniProt P49682)
Test: FLIPR assay (inhibition of CXCL10-induced calcium signal)
Type: cell-based
Details: engineered CHO-K1 cells expressing human CXCR3A coupled to Galpha(16); Fluo-4-AM; CXCL10 agonist 20 nM; mean values where determined several times
Method: The bioactivity of compounds is tested in a fluorometric imaging plate reader (FLIPR: Molecular Devices) using engineered CHO-K1 cells expressing the human CXCR3A (GenBank: AY242128) coupled to a G protein (Galpha(16)). Cells are plated the day prior to bioassay in F12 medium supplemented with 10% FBS and G418 and hygromycin antibiotics to maintain recombinant selection. At the day of bioassay, cells are washed and dye loaded for one hour with Fluo-4-AM (Invitrogen) in Hanks Balanced Salt Solution (Invitrogen), buffered with 20 mM Hepes at pH 7.4 and sodium bicarbonate (0.038%), containing 5 mM probenecid. This buffer, but lacking the dye and containing probenecid at a concentration of 2.5 mM, is also used for washing steps (wash buffer); or lacking both dye and probenecid but supplemented with 0.1% BSA for compound dilution steps (dilution buffer). Cells are washed free of excess dye and 60 microliter of wash buffer is added. Stock solutions of test compounds are made up at a concentration of 10 mM in DMSO, and serially diluted in dilution buffer to concentrations required for inhibition dose response curves. After a 10 minute incubation period at 37° C., 10 microliters of each compound dilution are transferred from a compound plate to the plate containing the recombinant cells in the FLIPR instrument according to the manufacturer's instructions. Following basal readings, 10 microliter CXCL10 agonist at a concentration of 20 nM (from Peprotech) is added, again using the FLIPR instrument. Changes in fluorescence are monitored before and after addition of the test compounds. Emission peak values above base level after CXCL10 addition are exported after base line subtraction.
The calculated IC50 values may fluctuate depending on the daily assay performance. Fluctuations of this kind are known to those skilled in the art. In the case where IC50 values have been determined several times for the same compound, mean values are given.

Chain of human CXCR3A (P49682 whole entry): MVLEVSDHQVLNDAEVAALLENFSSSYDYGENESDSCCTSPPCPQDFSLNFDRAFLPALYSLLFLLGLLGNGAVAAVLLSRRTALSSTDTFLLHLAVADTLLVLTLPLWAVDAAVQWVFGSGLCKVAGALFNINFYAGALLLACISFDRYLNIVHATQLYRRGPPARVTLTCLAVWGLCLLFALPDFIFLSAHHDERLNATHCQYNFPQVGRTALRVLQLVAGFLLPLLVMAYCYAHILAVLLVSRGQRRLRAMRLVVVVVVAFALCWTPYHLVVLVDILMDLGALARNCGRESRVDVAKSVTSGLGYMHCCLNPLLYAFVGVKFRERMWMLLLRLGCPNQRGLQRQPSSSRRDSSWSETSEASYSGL

Row | Structure (SMILES) | IC50
1 | Cc1cc(C)n(CC(=O)N2CCN(c3ccc(C(F)(F)F)c4c3CN(c3ncc(Cn5cccn5)s3)CC4)C[C@H]2C)n1 [Example 1, 2-(3,5-Dimethyl-pyrazol-1-yl)-1-{(R)-2-methyl-4-[2-(5-pyrazol-1-ylmethyl-thiazol-2-yl)-5-trifluoromethyl-1,2,3,4-tetrahydro-isoquinolin-8-yl]-piperazin-1-yl}-ethanone] | 4.47 nM
2 | Cc1cc(C)n(CC(=O)N2CCN(c3ccc(C(F)(F)F)c4c3CN(c3nc(C(F)(F)F)cs3)CC4)C[C@H]2C)n1 [Example 2, 2-(3,5-Dimethyl-pyrazol-1-yl)-1-{(R)-2-methyl-4-[5-trifluoromethyl-2-(4-trifluoromethyl-thiazol-2-yl)-1,2,3,4-tetrahydro-isoquinolin-8-yl]-piperazin-1-yl}-ethanone] | 6.07 nM
3 | CCc1csc(N2CCc3c(C(F)(F)F)ccc(N4CCN(C(=O)Cn5nc(C)cc5C)[C@H](C)C4)c3C2)n1 [Example 3, 2-(3,5-Dimethyl-pyrazol-1-yl)-1-{(R)-4-[2-(4-ethyl-thiazol-2-yl)-5-trifluoromethyl-1,2,3,4-tetrahydro-isoquinolin-8-yl]-2-methyl-piperazin-1-yl}-ethanone] | 15.1 nM
4 | Cc1cc(C)n(CC(=O)N2CCN(c3ccc(C(F)(F)F)c4c3CN(c3nc(C(C)(C)C)cs3)CC4)C[C@H]2C)n1 [Example 4, 1-{(R)-4-[2-(4-tert.-Butyl-thiazol-2-yl)-5-trifluoromethyl-1,2,3,4-tetrahydro-isoquinolin-8-yl]-2-methyl-piperazin-1-yl}-2-(3,5-dimethyl-pyrazol-1-yl)-ethanone] | 20.6 nM
5 | Cc1cc(C)n(CC(=O)N2CCN(c3ccc(C(F)(F)F)c4c3CN(c3nc(-c5ccccn5)cs3)CC4)C[C@H]2C)n1 [Example 5, 2-(3,5-Dimethyl-pyrazol-1-yl)-1-{(R)-2-methyl-4-[2-(4-pyridin-2-yl-thiazol-2-yl)-5-trifluoromethyl-1,2,3,4-tetrahydro-isoquinolin-8-yl]-piperazin-1-yl}-ethanone] | 11 nM
6 | Cc1cc(C)n(CC(=O)N2CCN(c3ccc(C(F)(F)F)c4c3CN(c3ncc(Cl)s3)CC4)C[C@H]2C)n1 [Example 6, 1-{(R)-4-[2-(5-Chloro-thiazol-2-yl)-5-trifluoromethyl-1,2,3,4-tetrahydro-isoquinolin-8-yl]-2-methyl-piperazin-1-yl}-2-(3,5-dimethyl-pyrazol-1-yl)-ethanone] | 18.1 nM
7 | Cc1cc(C)n(CC(=O)N2CCN(c3ccc(C(F)(F)F)c4c3CN(c3nc(C#N)cs3)CC4)C[C@H]2C)n1 [Example 7, 2-(8-{(R)-4-[2-(3,5-Dimethyl-pyrazol-1-yl)-acetyl]-3-methyl-piperazin-1-yl}-5-trifluoromethyl-3,4-dihydro-1H-isoquinolin-2-yl)-thiazole-4-carbonitrile] | 29.2 nM
8 | Cc1cc(C)n(CC(=O)N2CCN(c3ccc(C(F)(F)F)c4c3CN(c3ncc(C#N)s3)CC4)C[C@H]2C)n1 [Example 8, 2-(8-{(R)-4-[2-(3,5-Dimethyl-pyrazol-1-yl)-acetyl]-3-methyl-piperazin-1-yl}-5-trifluoromethyl-3,4-dihydro-1H-isoquinolin-2-yl)-thiazole-5-carbonitrile] | 8.88 nM
9 | Cc1ccc2nc(N3CCc4c(C(F)(F)F)ccc(N5CCN(C(=O)Cn6nc(C)cc6C)[C@H](C)C5)c4C3)sc2c1 [Example 9, 2-(3,5-Dimethyl-pyrazol-1-yl)-1-{(R)-2-methyl-4-[2-(6-methyl-benzothiazol-2-yl)-5-trifluoromethyl-1,2,3,4-tetrahydro-isoquinolin-8-yl]-piperazin-1-yl}-ethanone] | 13.7 nM
10 | Cc1cc(C)n(CC(=O)N2CCN(c3ccc(C(F)(F)F)c4c3CN(c3nc5ccc(F)cc5s3)CC4)C[C@H]2C)n1 [Example 10, 2-(3,5-Dimethyl-pyrazol-1-yl)-1-{(R)-4-[2-(6-fluoro-benzothiazol-2-yl)-5-trifluoromethyl-1,2,3,4-tetrahydro-isoquinolin-8-yl]-2-methyl-piperazin-1-yl}-ethanone] | 9.45 nM
11 | Cc1cc(C)n(CC(=O)N2CCN(c3ccc(C(F)(F)F)c4c3CN(c3nc5ccc(C#N)cc5s3)CC4)C[C@H]2C)n1 [Example 11, 2-(8-{(R)-4-[2-(3,5-Dimethyl-pyrazol-1-yl)-acetyl]-3-methyl-piperazin-1-yl}-5-trifluoromethyl-3,4-dihydro-1H-isoquinolin-2-yl)-benzothiazole-6-carbonitrile] | 6.58 nM
12 | Cc1cc(C)n(CC(=O)N2CCN(c3ccc(C(F)(F)F)c4c3CN(c3nc5ccccc5o3)CC4)C[C@H]2C)n1 [Example 12, 1-[(R)-4-(2-Benzooxazol-2-yl-5-trifluoromethyl-1,2,3,4-tetrahydro-isoquinolin-8-yl)-2-methyl-piperazin-1-yl]-2-(3,5-dimethyl-pyrazol-1-yl)-ethanone] | 9.39 nM
13 | Cc1cc(C)n(CC(=O)N2CCN(c3ccc(C(F)(F)F)c4c3CN(c3cnc(N(C)C)nc3)CC4)C[C@H]2C)n1 [Example 13, 1-{(R)-4-[2-(2-Dimethylamino-pyrimidin-5-yl)-5-trifluoromethyl-1,2,3,4-tetrahydro-isoquinolin-8-yl]-2-methyl-piperazin-1-yl}-2-(3,5-dimethyl-pyrazol-1-yl)-ethanone] | 8.48 nM
14 | Cc1cc(C)n(CC(=O)N2CCN(c3ccc(C(F)(F)F)c4c3CN(c3ncc(Br)cn3)CC4)C[C@H]2C)n1 [Example 14, 1-{(R)-4-[2-(5-Bromo-pyrimidin-2-yl)-5-trifluoromethyl-1,2,3,4-tetrahydro-isoquinolin-8-yl]-2-methyl-piperazin-1-yl}-2-(3,5-dimethyl-pyrazol-1-yl)-ethanone] | 27.7 nM
15 | Cc1cc(C)n(CC(=O)N2CCN(c3ccc(C(F)(F)F)c4c3CN(c3cnc(C5CC5)nc3)CC4)C[C@H]2C)n1 [Example 15, 1-{(R)-4-[2-(2-Cyclopropyl-pyrimidin-5-yl)-5-trifluoromethyl-1,2,3,4-tetrahydro-isoquinolin-8-yl]-2-methyl-piperazin-1-yl}-2-(3,5-dimethyl-pyrazol-1-yl)-ethanone] | 3.58 nM
16 | C[C@@H]1CN(c2ccc(C(F)(F)F)c3c2CN(c2ccccc2)CC3)CCN1C(=O)Cn1cnc2cccnc21 [Example 16, 2-Imidazo[4,5-b]pyridin-3-yl-1-[(R)-2-methyl-4-(2-phenyl-5-trifluoromethyl-1,2,3,4-tetrahydro-isoquinolin-8-yl)-piperazin-1-yl]-ethanone] | 6.19 nM
17 | COc1ncc(N2CCc3c(C(F)(F)F)ccc(N4CCN(C(=O)Cn5cnc6cccnc65)[C@H](C)C4)c3C2)cn1 [Example 17, 2-Imidazo[4,5-b]pyridin-3-yl-1-{(R)-4-[2-(2-methoxy-pyrimidin-5-yl)-5-trifluoromethyl-1,2,3,4-tetrahydro-isoquinolin-8-yl]-2-methyl-piperazin-1-yl}-ethanone] | 9.2 nM
18 | COc1cccc(N2CCc3c(C(F)(F)F)ccc(N4CCN(C(=O)Cn5cnc6cccnc65)[C@H](C)C4)c3C2)c1 [Example 18, 2-Imidazo[4,5-b]pyridin-3-yl-1-{(R)-4-[2-(3-methoxy-phenyl)-5-trifluoromethyl-1,2,3,4-tetrahydro-isoquinolin-8-yl]-2-methyl-piperazin-1-yl}-ethanone] | 13 nM
19 | COc1nc(OC)nc(N2CCc3c(C(F)(F)F)ccc(N4CCN(C(=O)Cn5cnc6cccnc65)[C@H](C)C4)c3C2)n1 [Example 19, 1-{(R)-4-[2-(4,6-Dimethoxy-[1,3,5]triazin-2-yl)-5-trifluoromethyl-1,2,3,4-tetrahydro-isoquinolin-8-yl]-2-methyl-piperazin-1-yl}-2-imidazo[4,5-b]pyridin-3-yl-ethanone] | 11.7 nM
20 | CCOc1ncc(N2CCc3c(C(F)(F)F)ccc(N4CCN(C(=O)Cn5cnc6cccnc65)[C@H](C)C4)c3C2)cn1 [Example 20, 1-{(R)-4-[2-(2-Ethoxy-pyrimidin-5-yl)-5-trifluoromethyl-1,2,3,4-tetrahydro-isoquinolin-8-yl]-2-methyl-piperazin-1-yl}-2-imidazo[4,5-b]pyridin-3-yl-ethanone] | 7.77 nM
21 | C[C@@H]1CN(c2ccc(C(F)(F)F)c3c2CN(c2ccc(Cl)cc2)CC3)CCN1C(=O)Cn1cnc2cccnc21 [Example 21, 1-{(R)-4-[2-(4-Chloro-phenyl)-5-trifluoromethyl-1,2,3,4-tetrahydro-isoquinolin-8-yl]-2-methyl-piperazin-1-yl}-2-imidazo[4,5-b]pyridin-3-yl-ethanone] | 29.9 nM
22 | CCCc1ncc(N2CCc3c(C(F)(F)F)ccc(N4CCN(C(=O)Cn5cnc6cccnc65)[C@H](C)C4)c3C2)cn1 [Example 22, 2-Imidazo[4,5-b]pyridin-3-yl-1-{(R)-2-methyl-4-[2-(2-propyl-pyrimidin-5-yl)-5-trifluoromethyl-1,2,3,4-tetrahydro-isoquinolin-8-yl]-piperazin-1-yl}-ethanone] | 10.7 nM
23 | COc1ncc(N2CCc3c(C(F)(F)F)ccc(N4CCN(C(=O)Cn5nc(C)nc5C)[C@H](C)C4)c3C2)cn1 [Example 23, 2-(3,5-Dimethyl-[1,2,4]triazol-1-yl)-1-{(R)-4-[2-(2-methoxy-pyrimidin-5-yl)-5-trifluoromethyl-1,2,3,4-tetrahydro-isoquinolin-8-yl]-2-methyl-piperazin-1-yl}-ethanone] | 17.1 nM
